“Also recorded” adds a separate entry of the source.
Experiments:
[1] = test system: LPA1-3 EDG-family receptors; assay: Activity at LPA receptors; type: biochemical, human; settings: concentrations up to 30 μM
From the text: (§1) The appropriate receptor plasmid DNA (encoding human S1P1, human S1P2, human S1P3, human S1P4, human S1P5, human LPA1, human LPA2 or human LPA3 receptors) is mixed with equal amounts of expression plasmids encoding human Gi2α (for S1P3, a mutated (C352F) rat Gi2α is used), cow β1, and cow γ2 proteins, and these DNAs are used to transfect monolayers of HEK293T cells (where ‘T’ indicates expression of the SV-40 virus large T antigen) using the calcium phosphate precipitate method (7). After about 60 hours, cells are harvested, membranes prepared, aliquoted, and stored at −70° C. until use (8).
(§2) The [γ-^35S]GTP binding assay is performed as described previously (8). Membranes containing 1-5 μg of protein are incubated in 0.1 ml of binding buffer (in mM: HEPES/50, NaCl/100, MgCl2/10, pH 7.5) containing 5 μg of saponin, 10 μM GDP, 0.1 nM [γ-^35S]GTP (1200 Ci/mmol), and indicated lipid(s) for 30 min at 30° C. and collected using a Brandel Cell Harvester (Gaithersburg, Md.). Samples are then analyzed for bound radionuclide.

S1P2 receptor = biological target: T1, S1P2 receptor (Homo sapiens, UniProt O95136); assay: [γ-35S]GTP binding assay, HEK293T membranes; type: biochemical
T1 construct: expressed in transfected cells; host or cells: HEK293T, transient transfection; membranes
From the text: as §1, §2
(§3) Statistical Analysis. The EC50 and IC50 values for all dose response curves were determined by nonlinear regression analysis of all data using the Graphpad Prism© program. The error associated with the data collected is reported as the standard error of the mean (S.E.M).

human S1P3 receptor [2] = biological target: T2, human S1P3 receptor (Homo sapiens, UniProt Q99500); assay: [32P]S1P binding assay, HEK293T membranes; parameters: expressed in transfected cells; host or cells: HEK293T, transient transfection; membranes; settings: read-out: pKi S1P3 (converted)
Method: (§4) [^32P]-S1P was prepared by incubating sphingosine and [γ-^32P]ATP with cell lysate from HEK293T cells transiently transfected with human sphingosine kinase type 2 DNA. The 200 μl reaction contained 0.025 mM sphingosine, 1 mCi [γ-^32P]ATP (7000 Ci/mmol) and kinase buffer (in mM: Mg(C2H3O2)2 (in 50 mM Tris, pH 7.5)/10, NaF/10, and semicarbizide/2). The reaction was initiated by the addition of 20 μg of cell lysate and incubated at 37° C. for at least 30 minutes. […] The organic layer was isolated and the extraction procedure repeated two additional times with the remaining aqueous fraction. The combined organic fractions were dried under a stream of nitrogen gas and resuspended in aqueous 0.1% fatty acid free BSA.
(§5) Bound ligand was separated from free ligand by rapid filtration and analyzed in a liquid scintillation counter.
as §3

human S1P1 receptor = human S1P1 receptor (Homo sapiens, UniProt P21453); assay: [32P]S1P binding assay, HEK293T membranes; parameters: expressed in transfected cells; host or cells: HEK293T, transient transfection; membranes; settings: read-out: pKi S1P1 (converted)
Method: as §4, §5, §3

human S1P3 receptor [3] = biological target: T2, human S1P3 receptor; assay: [γ-35S]GTP binding assay, HEK293T membranes (agonism and Schild antagonism); type: biochemical; parameters: expressed in transfected cells; host or cells: HEK293T, transient transfection; membranes
From the text: as §1, §2
Briefly, nonlinear analysis of the best-fit line generated by plotting the negative log of the EC50 values obtained from agonist dose-response curves, in the absence and presence of varying concentrations of antagonist, was plotted against the concentration of antagonist to give the Kb value.
as §3

T2 sequence (Q99500 whole entry): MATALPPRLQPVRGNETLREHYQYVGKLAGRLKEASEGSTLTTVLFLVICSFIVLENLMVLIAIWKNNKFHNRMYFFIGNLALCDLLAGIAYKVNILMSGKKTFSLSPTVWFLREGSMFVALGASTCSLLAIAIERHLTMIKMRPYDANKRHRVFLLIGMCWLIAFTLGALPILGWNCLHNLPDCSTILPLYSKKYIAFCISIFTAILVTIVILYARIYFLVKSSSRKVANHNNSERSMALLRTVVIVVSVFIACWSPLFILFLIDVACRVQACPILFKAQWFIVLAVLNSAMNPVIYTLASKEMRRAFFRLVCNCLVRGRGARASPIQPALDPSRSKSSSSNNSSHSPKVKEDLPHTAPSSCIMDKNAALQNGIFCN
T1 sequence (O95136 whole entry): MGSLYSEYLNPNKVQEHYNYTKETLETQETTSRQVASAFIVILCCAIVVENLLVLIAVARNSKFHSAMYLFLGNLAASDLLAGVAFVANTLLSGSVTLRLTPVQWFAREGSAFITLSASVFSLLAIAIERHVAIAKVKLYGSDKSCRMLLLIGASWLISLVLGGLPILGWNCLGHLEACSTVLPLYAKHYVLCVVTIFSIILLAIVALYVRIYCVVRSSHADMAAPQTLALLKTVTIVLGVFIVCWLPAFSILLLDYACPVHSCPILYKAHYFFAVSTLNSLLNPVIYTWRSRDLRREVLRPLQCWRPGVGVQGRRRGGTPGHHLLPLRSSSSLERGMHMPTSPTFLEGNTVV
Sequence of human S1P1 receptor (P21453 whole entry): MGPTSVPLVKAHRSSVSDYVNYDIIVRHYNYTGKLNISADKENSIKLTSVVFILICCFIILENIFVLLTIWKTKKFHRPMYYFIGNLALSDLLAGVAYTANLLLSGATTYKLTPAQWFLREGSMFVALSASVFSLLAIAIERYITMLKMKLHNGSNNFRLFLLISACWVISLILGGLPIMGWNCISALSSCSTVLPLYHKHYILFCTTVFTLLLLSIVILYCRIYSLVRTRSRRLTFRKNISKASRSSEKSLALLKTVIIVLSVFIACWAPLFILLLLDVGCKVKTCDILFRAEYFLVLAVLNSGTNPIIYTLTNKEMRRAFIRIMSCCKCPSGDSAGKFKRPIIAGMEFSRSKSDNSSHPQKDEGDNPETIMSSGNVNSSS

- Agonist activity at LPA1-3 receptors [1]: neither agonist activity
- Activity at the S1P2 receptor (S1P2 receptor): devoid of agonist activity
- EC50 (S1P2 receptor; -log molar concentration giving 50% of maximal [γ-35S]GTP binding, ± S.E.M., read-out: pEC50 S1P2 (converted)): > 10 µM
- Ki (human S1P3 receptor [2]): 1.17 µM
- Ki (human S1P1 receptor): 0.0138 µM
- Agonist activity at the S1P3 receptor (human S1P3 receptor [3]): lacked agonist activity
- Inverse agonism profile at S1P3 (human S1P3 receptor [3]; VPC23019 concentrations greater than 100 nM): a profile suggesting inverse agonism
- Kb (human S1P3 receptor [3]; read-out: pKb S1P3 (converted)): 1.05 µM
Structure (SMILES): CCCCCCCCc1cccc(NC(=O)[C@H](N)COP(=O)(O)O)c1 [VPC23019]
- Agonist or antagonist activity at the human S1P2 receptor (S1P2 receptor; concentrations up to 10 micromolar): inactive as either an agonist or antagonist
- Antagonism of S1P at the S1P3 receptor (human S1P3 receptor [3]; [γ-35S]GTP binding, S1P with increasing VPC23019, Lew and Angus regression): dose-dependent, parallel rightward shift; also recorded: competitive antagonist
- Agonist efficacy class S1P3 (human S1P3 receptor [3]; relative to S1P Emax): na (no agonist activity (<10% of S1P Emax))

From patent US7888527B2 (University of Virginia Patent Foundation, priority 2004, dated 2011)
